This data set can be described thus: Iontophoretic administration of salmon calcitonin to beagles, blood level by RIA. The format is in vivo, beagle (dog). The settings on record: for level at 0.5 h: beagle, dog, blood, pulse depolarization iontophoresis 0.2 mA for 30 min, measured 30 minutes later, beagles under pentobarbital anesthesia, read-out: blood concentration of salmon calcitonin. As to the method:
Beagles were put under pentobarbital anesthesia. A positive electrode pad containing salmon calcitonin 1000 unit (an extraction pad of an electrode structure applied to the mucous membrane of the mouth) was applied to the mucous membrane of the mouth of each beagle. A negative electrode (a counter pad of an electrode structure applied to the skin) was applied to the ear of the beagle. A pulse depolarization type iontophoresis system was used to apply a 0.2-mA current for 30 minutes. Then, 30 minutes later, the level of salmon calcitonin in the blood was measured. An RIA kit (ROIK6003, Peninsula) was used for quantification.
As in the case with Example 3, salmon calcitonin was administered to beagles under pentobarbital anesthesia. However, the positive electrode pad was not applied to the mucous membrane of the mouth but to the skin (belly). The negative electrode was applied to the ear. The other conditions are similar to those for Example 3.
FIG. 4 is a graph showing the blood concentration observed 30 minutes after the application of the present system to the mucous membrane of the mouth (Example 3) and to the skin (Comparative Example 1). The blood concentration was about 530 pg/ml 30 minutes after salmon calcitonin was administered to the dog via the mucous membrane of the mouth (Example 3). The blood concentration was about 90 pg/ml 30 minutes after salmon calcitonin was administered to the dog via the skin (Comparative Example 1). Calcitonin is ionized, but owing to its […], calcitonin permeates through the living body as a result of the flow of water caused by iontophoresis instead of its direct electric driving force.

We go through one compound from patent publication US7018345B2, “Iontophoresis system” (Hisamitsu Pharmaceutical Co., Inc., priority 2002, dated 2006).

SMILES strings stand for the structures. Read-outs that look alike come from different tables or passages of the source.

As to `CC(C)C[C@H](NC(=O)[C@H](CCCCN)NC(=O)CNC(=O)[C@H](CC(C)C)NC(=O)[C@@H](NC(=O)[C@@H]1CSSC[C@H](N)C(=O)N[C@@H](CO)C(=O)N[C@@H](CC(N)=O)C(=O)N[C@@H](CC(C)C)C(=O)N[C@@H](CO)C(=O)N[C@@H]([C@@H](C)O)C(=O)N1)C(C)C)C(=O)N[C@@H](CO)C(=O)N[C@@H](CCC(N)=O)C(=O)N[C@@H](CCC(=O)O)C(=O)N[C@@H](CC(C)C)C(=O)N[C@@H](Cc1c[nH]cn1)C(=O)N[C@@H](CCCCN)C(=O)N[C@@H](CC(C)C)C(=O)N[C@@H](CCC(N)=O)C(=O)N[C@H](C(=O)N[C@@H](Cc1ccc(O)cc1)C(=O)N1CCC[C@H]1C(=O)N[C@@H](CCCNC(=N)N)C(=O)N[C@H](C(=O)N[C@@H](CC(N)=O)C(=O)N[C@H](C(=O)NCC(=O)N[C@@H](CO)C(=O)NCC(=O)N[C@H](C(=O)N1CCC[C@H]1C(N)=O)[C@@H](C)O)[C@@H](C)O)[C@@H](C)O)[C@@H](C)O` [salmon calcitonin], the level at 0.5 h by setting is: (topical or ocular, Comparative Example 1: positive electrode pad (1000 unit) on skin (belly)) around 0.09 ng/mL; (Example 3: positive electrode pad (1000 unit) on mucous membrane of the mouth) around 0.53 ng/mL. Where the note is “iontophoresis, mucous membrane vs skin”, the “absorptivity of mucous membrane relative to skin” value is “six”.
